According to US20230201153A1, “COMPOSITIONS AND METHODS FOR TREATMENT OF OBESITY” (EPITRACKER, INC., priority 2020, published 2023):
pEC50: −log10 of the molar value. Entries after “also recorded” stand apart in the source; their conditions may differ.

Legend:
[1] = molecular target: T1, cannabinoid receptor 1 (CB1) (Homo sapiens, UniProt P21554); assay: SAFETYscan E/IC50 ELECT functional assay, CB1 agonist activity; assay type: cell-based; details: at 20 μM; relative to positive control CP 55940 assigned 100%
T1 construct: purchased DiscoverX/Eurofins, Fremont, Calif
T1 sequence (P21554 whole entry): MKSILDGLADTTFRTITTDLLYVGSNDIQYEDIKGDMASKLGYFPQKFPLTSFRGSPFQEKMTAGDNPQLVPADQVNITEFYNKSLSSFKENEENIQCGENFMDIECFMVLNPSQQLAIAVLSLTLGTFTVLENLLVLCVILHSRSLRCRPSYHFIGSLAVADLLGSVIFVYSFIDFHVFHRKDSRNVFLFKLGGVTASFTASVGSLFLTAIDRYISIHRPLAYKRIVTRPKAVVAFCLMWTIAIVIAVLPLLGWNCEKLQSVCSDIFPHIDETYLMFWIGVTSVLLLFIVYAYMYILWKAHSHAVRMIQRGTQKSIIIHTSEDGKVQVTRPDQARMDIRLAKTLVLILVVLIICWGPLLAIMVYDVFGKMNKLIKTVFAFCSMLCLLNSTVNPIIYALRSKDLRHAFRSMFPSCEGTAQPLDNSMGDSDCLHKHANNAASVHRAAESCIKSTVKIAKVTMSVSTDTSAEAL
Source text: (§1) In order to evaluate potential pharmacologic targets of pentadecanoic acid, this study examined agonist and antagonist activities of synthetic pentadecanoic acid (Sigma-Aldrich Product W433400) across 78 assays using SAFETYscan E/IC50 ELECT (DiscoverX/Eurofins, Fremont, Calif.). Briefly, a variety of standardized and optimized functional assays were used, including G protein coupled receptors (ADORA2A, ADRA1A, ADRA2A, ADRB1, ADRB2, CB1, CB2, CCK1, D1, D2S, ETA, H1, H2, M1 M2, M3, OPRD1, OPRK1, OPRM1, 5HTR1A, 5HTR1B, 5HTR2A, 5HTR2B, AVPR1A), kinases (LCK, INSR, VEGFR2, ROCK1), transporters (DAT, NET, SERT), ion channels (GABAA, 5-HT3, CA1.2, HERG, KVLQT1/MINK, NA1.5, NMDAR1/2B, NACHR), nuclear receptors (AR, GR), and non-kinase enzymes (COX1, COX2, ACHE, MAOA, PDE3A, PDE4D2). Ten-point concentration curves for both agonist (EC50) and antagonist (IC50) activity were established for each target. Maximum activity (%) was also determined based on comparisons with internal positive controls, which were assigned 100% activity.

[2] = molecular target: T2, cannabinoid receptor 2 (CB2) (Homo sapiens, UniProt P34972); assay: SAFETYscan E/IC50 ELECT functional assay, CB2 agonist activity; assay type: cell-based; details: at 20 μM; relative to positive control CP 55940 assigned 100%
T2 construct: purchased DiscoverX/Eurofins, Fremont, Calif
T2 sequence (P34972 whole entry): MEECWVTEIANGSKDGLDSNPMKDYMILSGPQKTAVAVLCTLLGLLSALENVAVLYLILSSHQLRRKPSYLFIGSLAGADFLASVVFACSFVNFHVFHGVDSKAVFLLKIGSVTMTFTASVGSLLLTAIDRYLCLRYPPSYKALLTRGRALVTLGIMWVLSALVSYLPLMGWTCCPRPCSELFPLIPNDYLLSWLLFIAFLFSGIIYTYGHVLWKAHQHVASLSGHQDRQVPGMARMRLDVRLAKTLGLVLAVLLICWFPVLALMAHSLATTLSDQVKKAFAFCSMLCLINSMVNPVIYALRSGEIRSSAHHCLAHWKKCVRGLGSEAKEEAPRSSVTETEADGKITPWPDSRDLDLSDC
Source text: as §1

[3] = Body weight of mice fed a high-fat diet with daily oral supplementation; assay type: in vivo, male C57BL/6J mice; details: for Body weight / Body weight change (%): high fat diet, n = 10; for percent body weight gain / weight-lowering effect compared to non-supplemented controls: high fat diet mice, C15:0 5 mg/kg, C17:0 5 and 35 mg/kg daily oral
Source text: This study assessed the effects of daily oral C15:0 and C17:0 supplementation on the body weight of mice fed a high-fat diet compared to non-supplemented controls.
Forty 6-week old male C57BL/6J mice (Jackson Laboratories, Bar Harbor, Me.) were fed a high fat diet (HFD, 60% kilocalories fat, D12492 Research Diets Inc., New Brunswick, N.J.) for eight weeks. Animals were randomly assigned to one of the following four study groups (10 per group) on Day −1 based on body weight: Group 1 (HFD non-supplemented controls), Group 2 (daily oral 5 mg/kg heptadecanoic acid, C17:0), Group 3 (daily oral 35 mg/kg heptadecanoic acid, C17:0), and Group 4 (daily oral 5 mg/kg pentadecanoic acid, C15:0). Group sizes for this pilot study were based on numerous published studies initially evaluating the effects of other natural small molecules on similar metabolic indices in the same model. Animals were provided the vehicle (1×PBS) or test articles daily via gastric gavage for 12 weeks. Animals were fed the HFD throughout the study. The study was conducted by Charles River Laboratories (Shrewsbury, Mass.), where animals were housed singly in solid bottom polycarbonate cages with Beta-chip contact bedding and enviro-dri nesting material, with temperature and humidity ranges of 18° to 26° C. and 30 to 70%, respectively. A 12 hr light cycle was used, and water and food were provided ad libitum. Body weights and body weight changes were recorded weekly throughout the study. Due to low sample sizes and inability to assume normal distributions, Wilcoxon tests were used to compare body weight values between supplemented and non-supplemented controls; a two-sided P value ≤0.05 was defined as significant.

[4] = Voluntary customer surveys after daily oral C15:0 supplement (fatty15); assay type: in vivo, human
Experimental: An odd-chain saturated fatty acid dietary supplement, containing an encapsulated pure (>98%) free fatty acid C15:0 powder and called fatty15™, was launched as a consumer health product. Recommended dosing was a single, […] capsule taken orally once a day. Based on our studies with obese mice, we hypothesized that daily oral C15:0 supplementation would decrease snacking and/or improve body weight among customers.
6-Week Survey. Six weeks following receipt of the C15:0 supplement, customers were provided a voluntary electronic questionnaire to evaluate potential near-term benefits, including the question, ‘Overall how much would you agree with the following statement: Since starting fatty15, I feel less hungry between meals, snack less, and/or eat less during meals.’ Survey responders were asked to select a number between 1 and 10, in which 1=Strongly disagree and 10=Strongly agree. A response of 7 or greater was considered an agreement with the statement. Survey responders were also asked if fatty15™ had become a part of their daily health routine.
4-Month Survey. Approximately 4 months following receipt of the C15:0 supplement, customers were provided a second voluntary electronic questionnaire to evaluate potential longer-tem benefits, including the question, ‘Which of the following (if any) have you experienced since starting fatty15, even if this experience has been subtle?’ Two of the possible responses were ‘Healthier eating, including less snacking’ and ‘Healthier body weight’.

PPARα = molecular target: T3, PPARα (Homo sapiens, UniProt Q07869); assay: PathHunter NHRscan CHO cell-based functional protein interaction assay, PPARα agonist; details: CHO cells, 10 concentrations up to 100 μM; for pEC50: read-out: effective concentration needed to reach half-maximum PPARα activity
T3 construct: host or cells: Chinese hamster ovary (CHO)
T3 sequence (Q07869 1-468): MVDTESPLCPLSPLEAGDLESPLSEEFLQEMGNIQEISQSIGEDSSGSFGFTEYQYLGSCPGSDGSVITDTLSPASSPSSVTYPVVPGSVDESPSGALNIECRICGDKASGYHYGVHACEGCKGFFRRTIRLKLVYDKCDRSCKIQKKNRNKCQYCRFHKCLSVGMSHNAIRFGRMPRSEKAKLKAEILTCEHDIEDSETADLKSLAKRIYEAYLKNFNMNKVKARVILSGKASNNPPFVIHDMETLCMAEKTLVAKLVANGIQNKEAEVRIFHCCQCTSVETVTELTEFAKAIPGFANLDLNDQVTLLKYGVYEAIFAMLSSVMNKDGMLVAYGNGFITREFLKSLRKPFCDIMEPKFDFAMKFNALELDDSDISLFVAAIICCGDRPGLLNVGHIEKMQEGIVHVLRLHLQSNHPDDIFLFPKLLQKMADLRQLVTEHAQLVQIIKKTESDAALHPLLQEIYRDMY
Experimental: (§2) Chinese hamster ovary (CHO, cell line 93-0457C2) cell-based functional protein interaction assays for PPARα, δ, and γ that are part of the Eurofins/DiscoverX PathHunter NHRscan panel (Fremont, Calif.) were used to evaluate C15:0 and C17:0 PPARα, δ and γ agonist activities at 10 concentrations (up to 100 μM). Effective concentrations (EC:50) and maximum activities were determined in relation to positive controls (GW7647 for PPARα, L-165.041 for PPARδ, and troglitazone for PPARγ). Detailed methods used for these assays and assay readouts are available from Eurofins/DiscoverX.

PPARδ = molecular target: T4, PPARδ (Homo sapiens, UniProt Q03181); assay: PathHunter NHRscan CHO cell-based functional protein interaction assay, PPARδ agonist; details: CHO cells, 10 concentrations up to 100 μM; for pEC50: read-out: effective concentration needed to reach half-maximum PPARδ activity
T4 construct: host or cells: Chinese hamster ovary (CHO)
T4 sequence (Q03181 1-441): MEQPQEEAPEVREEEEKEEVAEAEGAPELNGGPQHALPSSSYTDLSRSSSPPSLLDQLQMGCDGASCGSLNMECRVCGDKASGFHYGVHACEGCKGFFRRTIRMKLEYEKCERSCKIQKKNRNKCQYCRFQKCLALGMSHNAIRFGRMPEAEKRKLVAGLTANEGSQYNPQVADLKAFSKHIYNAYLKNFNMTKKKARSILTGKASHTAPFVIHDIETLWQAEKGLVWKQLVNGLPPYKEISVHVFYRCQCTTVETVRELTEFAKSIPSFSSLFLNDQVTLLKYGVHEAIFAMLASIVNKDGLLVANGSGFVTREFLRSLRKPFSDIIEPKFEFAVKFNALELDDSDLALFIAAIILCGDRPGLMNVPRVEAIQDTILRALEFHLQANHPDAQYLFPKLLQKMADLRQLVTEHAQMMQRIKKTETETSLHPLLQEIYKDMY
Experimental: as §2

PPARγ = molecular target: T5, PPARγ (Homo sapiens, UniProt P37231); assay: PathHunter NHRscan CHO cell-based functional protein interaction assay, PPARγ agonist; details: CHO cells, 10 concentrations up to 100 μM; positive control troglitazone; read-out: concentration with PPARγ agonist activity
T5 construct: host or cells: Chinese hamster ovary (CHO)
T5 sequence (P37231 1-505): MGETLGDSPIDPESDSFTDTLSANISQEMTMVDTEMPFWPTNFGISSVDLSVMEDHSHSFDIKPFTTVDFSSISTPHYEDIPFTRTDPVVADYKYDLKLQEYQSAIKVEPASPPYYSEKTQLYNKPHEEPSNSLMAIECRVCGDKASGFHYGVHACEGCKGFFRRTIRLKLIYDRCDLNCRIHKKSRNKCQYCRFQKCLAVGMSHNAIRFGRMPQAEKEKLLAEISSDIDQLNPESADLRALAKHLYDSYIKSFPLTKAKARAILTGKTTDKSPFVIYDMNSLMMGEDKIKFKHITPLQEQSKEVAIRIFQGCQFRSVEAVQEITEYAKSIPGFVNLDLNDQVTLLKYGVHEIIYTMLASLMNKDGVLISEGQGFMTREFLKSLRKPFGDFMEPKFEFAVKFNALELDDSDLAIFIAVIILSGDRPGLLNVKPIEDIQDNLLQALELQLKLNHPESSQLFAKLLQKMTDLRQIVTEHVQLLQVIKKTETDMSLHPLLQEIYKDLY
Experimental: as §2

[5] = 5 mg/kg daily oral gavage for 12 weeks
[6] = 5 mg/kg daily oral gavage for 12 weeks, *p < 0.05 compared to controls
[7] = after 4 months of daily oral 100 mg, 44 responders
[8] = 35 mg/kg daily oral gavage for 12 weeks

SMILES	CB1 agonist activity [1]	CB2 agonist activity [2]	Body weight [3, 5]	Body weight change (%) [3, 6]	percent body weight gain / weight-lowering effect compared to non-supplemented controls [3]	customers reporting healthier body weight [4, 7]	customers reporting healthier eating, including less snacking [4, 7]	customers reporting feeling less hungry between meals, snacking less, and/or eating less during meals ([4]; after 6 weeks of daily oral 100 mg, 114 responders)	satiety reported by patients taking the dietary supplement ([4]; dietary supplement)	maximum PPARα agonist activity compared to positive control GW7647 (PPARα)	pEC50 (PPARα)	maximum PPARδ agonist activity compared to positive control L-165,041 (PPARδ)	pEC50 (PPARδ)	pEC50 (PPARγ)	Body weight [3, 8]	Body weight change (%) [3, 8]
CCCCCCCCCCCCCCC(=O)O [C15:0, pentadecanoic acid]	24.5%	18.2%	41 ± 5 g	120 ± 6* %	weight-lowering effect was observed; also recorded: lower percent body weight gain	21%	33%	46%	increased satiety	65.8%	4.94	52.8%	5.57	≤ 4.00		
CCCCCCCCCCCCCCCCC(=O)O [C17:0, heptadecanoic acid]			43 ± 6 g	127 ± 9%	weight-lowering effect was not observed; also recorded: did not significantly decrease percent body weight						< 4.00	39.8%	4.76	≤ 4.00	41 ± 7 g	122 ± 12%
